# Laboratory results taken from ChEMBL document CHEMBL1201862, “PubChem BioAssay data set” (2004).
#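 1) Cells in 96-well plates. 2) Compound, 48 h, 5 concentrations. 3) Linear interpolation between surrounding doses. 4) Unreached endpoint = highest concentration. At the GI50, growth is halved.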 Active and inactive are the calls of the source. No stated cut-off is given here; in the data, active = GI50 up to about 1.1 µM and inactive = higher.
# How the values were obtained:
# Assay in all cases: NCI anticancer screen, dose series, 48 h
# [1] = tested on: Malme-3M
# [2] = tested on: A549
# [3] = tested on: UO-31
# [4] = tested on: MOLT-4
# [5] = tested on: M14
# [6] = tested on: K562
# [7] = tested on: UACC-62
# [8] = tested on: SR
# [9] = tested on: A498
# [10] = tested on: MDA-MB-231
# [11] = tested on: NCI-H460
# [12] = tested on: IGROV-1
# [13] = tested on: KM12
# [14] = tested on: HOP-92
# [15] = tested on: BT-549
# [16] = tested on: CCRF-CEM
# [17] = tested on: EKVX
# [18] = tested on: U-251
# [19] = tested on: SN12C
# [20] = tested on: LOX IMVI
SMILES,GI50 [1],GI50 [2],GI50 [3],GI50 [4],GI50 [5],GI50 [6],GI50 [7],GI50 [8],GI50 [9],GI50 [10],GI50 [11],GI50 [12],GI50 [13],GI50 [14],GI50 [15],GI50 [16],GI50 [17],GI50 [18],GI50 [19],GI50 [20]
S=C(Nc1ccc(Br)cn1)NC12CC3CC(CC(C3)C1)C2,21.7 µM (inactive),16.2 µM (inactive),28.3 µM (inactive),25.8 µM (inactive),46 µM (inactive),> 100 µM (inactive),17.5 µM (inactive),36.1 µM (inactive),33 µM (inactive),17.8 µM (inactive),28.5 µM (inactive),8.59 µM (inactive),> 100 µM (inactive),7.18 µM (inactive),> 10 µM (inactive),25.4 µM (inactive),18.5 µM (inactive),11.3 µM (inactive),,
O=C(c1ccco1)C1CC(c2ccc3ccccc3c2O)=NN1c1ccc([N+](=O)[O-])cc1[N+](=O)[O-] (stereo unspecified),37 µM (inactive),22.3 µM (inactive),16.6 µM (inactive),1.71 µM (inactive),22.9 µM (inactive),,17.6 µM (inactive),1.01 µM (active),23.7 µM (inactive),20.7 µM (inactive),10.5 µM (inactive),14 µM (inactive),3.95 µM (inactive),12.4 µM (inactive),29.7 µM (inactive),2.29 µM (inactive),,28.4 µM (inactive),32.8 µM (inactive),
O=c1c2ccccc2[nH]n1Cc1ccccc1,,> 100 µM (inactive),> 100 µM (inactive),> 100 µM (inactive),> 100 µM (inactive),> 100 µM (inactive),> 100 µM (inactive),> 100 µM (inactive),> 100 µM (inactive),> 100 µM (inactive),> 100 µM (inactive),> 100 µM (inactive),> 100 µM (inactive),> 100 µM (inactive),> 100 µM (inactive),> 100 µM (inactive),> 100 µM (inactive),> 100 µM (inactive),> 100 µM (inactive),> 100 µM (inactive)
O=C(OCc1ccccc1)N1CCNCCNCC1,,> 100 µM (inactive),> 100 µM (inactive),> 100 µM (inactive),> 100 µM (inactive),> 100 µM (inactive),> 100 µM (inactive),> 100 µM (inactive),> 100 µM (inactive),> 100 µM (inactive),> 100 µM (inactive),> 100 µM (inactive),> 100 µM (inactive),> 100 µM (inactive),> 100 µM (inactive),> 100 µM (inactive),> 100 µM (inactive),> 100 µM (inactive),> 100 µM (inactive),> 100 µM (inactive)
CC(=O)N1N=C(c2ccc3ccccc3c2O)CC1c1ccc(Cl)cc1Cl (stereo unspecified),> 100 µM (inactive),25.1 µM (inactive),> 100 µM (inactive),7.67 µM (inactive),27.2 µM (inactive),7.69 µM (inactive),> 100 µM (inactive),5.21 µM (inactive),27.9 µM (inactive),26.7 µM (inactive),12.3 µM (inactive),22.4 µM (inactive),46.2 µM (inactive),54.6 µM (inactive),> 100 µM (inactive),3.91 µM (inactive),,18.3 µM (inactive),19.6 µM (inactive),
Oc1ccc(Cl)cc1C1=NC(NCNC2=NC(c3ccccc3)CC(c3cc(Cl)ccc3O)=N2)=NC(c2ccccc2)C1 (stereo unspecified),,> 100 µM (inactive),54.2 µM (inactive),,> 100 µM (inactive),39 µM (inactive),> 100 µM (inactive),24.9 µM (inactive),> 100 µM (inactive),> 100 µM (inactive),87.1 µM (inactive),61.2 µM (inactive),> 100 µM (inactive),> 100 µM (inactive),> 100 µM (inactive),61 µM (inactive),> 100 µM (inactive),> 100 µM (inactive),,> 100 µM (inactive)
COc1cc(O)c2c(=O)cc(C3(OC(C)=O)C=CC(OC4OC(CO)C(O)C(O)C4O)C=C3)oc2c1 (stereo unspecified),> 100 µM (inactive),> 100 µM (inactive),> 100 µM (inactive),> 100 µM (inactive),> 100 µM (inactive),> 100 µM (inactive),> 100 µM (inactive),> 100 µM (inactive),> 100 µM (inactive),> 100 µM (inactive),> 100 µM (inactive),> 100 µM (inactive),> 100 µM (inactive),> 100 µM (inactive),> 100 µM (inactive),> 100 µM (inactive),> 100 µM (inactive),> 100 µM (inactive),> 100 µM (inactive),> 100 µM (inactive)
O=C(NCCN1CCCCC1)c1ccc(Br)cc1,> 100 µM (inactive),> 100 µM (inactive),> 100 µM (inactive),> 100 µM (inactive),> 100 µM (inactive),> 100 µM (inactive),,> 100 µM (inactive),42.8 µM (inactive),> 100 µM (inactive),> 100 µM (inactive),> 100 µM (inactive),> 100 µM (inactive),> 100 µM (inactive),> 100 µM (inactive),,> 100 µM (inactive),> 100 µM (inactive),> 100 µM (inactive),> 100 µM (inactive)
